The results in this text go back to ChEMBL document CHEMBL1129107, “Substituted morpholine-2S-acetic acid derivatives: Sch 50911 and related compounds as novel GABAB antagonists” (Bioorg Med Chem Lett, 1996).

A value given as a limit tells only on which side of the number the result lay.

Assay [1] can be described thus: Antagonistic activity was measured by the inhibition of Gamma-aminobutyric acid type B receptor binding to rat brain synaptosomes. The assay is classed as subcellular.
The species named for assay [2] is Cavia porcellus. The experiment in a line: Antagonistic activity was measured by the reversal inhibition of EFS stimulated neuronal cholinergic contraction of guinea pig tracheal rings at 300 uM. The format is functional. The following applies: Trachea.
For assay [3], the species on record is Cavia porcellus. The experiment in a line: Antagonistic activity was measured by the reversal inhibition of EFS stimulated neuronal cholinergic contraction of guinea pig tracheal rings. The assay is classed as functional. The following applies: Trachea.

In assay [1], `O=C(O)CC1CNC2(CC2)CO1` (racemic) displayed a concentration for half-maximal inhibition (IC50) of 37 µM. With `CC1(C)COC(CC(=O)O)CN1` (stereo in doubt; 24), in assay [1], the IC50 is above 100 µM. In assay [1], `CC1(CO)COC(CC(=O)O)CN1` (racemic; form 2) had an IC50 of 5 µM. The compound `CC[C@H]1CO[C@H](CC(=O)O)CN1` came in with an IC50 in assay [1] above 100 µM. In assay [1], `CC1COC(CC(=O)O)CN1` (racemic; form 1) registered an IC50 of 37 µM. Also, in the assay filed under Cavia porcellus [2], the inhibition at 300 µM amounted to 76%. As to `CC1COC(CC(=O)O)CN1` (racemic; form 2), the half-inhibitory concentration (IC50) in assay [1] was found to be 9 µM. Take `O=C(O)CC1CNC2(CCCC2)CO1` (racemic): the IC50 in assay [1] was 11 µM. Further, the inhibition at 300 µM in the assay filed under Cavia porcellus [2] came to 97%. `CC[C@@H]1CO[C@H](CC(=O)O)CN1` had an IC50 in assay [1] above 100 µM.

Take `CCC1(CO)COC(CC(=O)O)CN1` (racemic; form 2): the half-inhibitory concentration (IC50) in assay [1] was 100 µM.

Compound `CC[C@@H]1CO[C@@H](CC(=O)O)CN1` had an IC50 in assay [1] of 10 µM. The inhibition at 300 µM in the assay listed under Cavia porcellus [2] was found to be 95%. As to `CC1(C)CO[C@@H](CC(=O)O)CN1`, the IC50 in assay [1] was 1.1 µM. As for `CC1(CO)COC(CC(=O)O)CN1` (racemic; form 1), the IC50 turned out to be 2 µM in assay [1] and 4.5 µM in the assay filed under Cavia porcellus [3]. In turn, `O=C(O)CC1CNCCO1` (stereo not given) had an IC50 in assay [1] above 100 µM. In addition, the inhibition at 300 µM in the assay listed under Cavia porcellus [2] was 46%. Regarding `CCOC(OCC)P(=O)(O)CCCN`, the figures for the IC50 (in assay [1]; in the assay filed under Cavia porcellus [3]) were 62 µM and 65 µM, respectively. For the same compound, the inhibition at 300 µM in the assay listed under Cavia porcellus [2] came to 50%. On to `CC1(C)COC(CC(=O)O)CN1` (racemic), for which the IC50 was 3 µM in assay [1] and 4.6 µM in the assay listed under Cavia porcellus [3]. In assay [1], `CCC1(CO)COC(CC(=O)O)CN1` (racemic; form 1) gave an IC50 of 19 µM. The inhibition at 300 µM in the assay listed under Cavia porcellus [2] was determined as 99%.
